# In patent US20180177792A1, “COMPOSITIONS AND METHODS FOR TREATING PATIENTS WITH RTK MUTANT CELLS” (IGNYTA, INC., priority 2015, published 2018):
# Read-outs that look alike come from different tables or passages of the source.
# What was measured:
# [1] = molecular target: T1, BaF3-tel/trkA_WT cells (Homo sapiens, UniProt P04629); assay: growth inhibition, parental Ba/F3-tel/trkA cells; format: cell-based, murine
# T1 construct: Input Ba/F3-Tel/TrkA cell line was an engineered cell line harboring a recombinant TrkA fusion gene ETV6-TrkA; fused on or other part: P41212 (Transcription factor ETV6)
# Experimental: (§1) Input Ba/F3-Tel/TrkA cell line was an engineered cell line harboring a recombinant TrkA fusion gene ETV6-TrkA. […] Cell viability was evaluated by trypan blue and counted every two days (FIG. 9).
# (§2) Each treatment condition was performed in duplicate.
# (§3) In this experiment, each of the following cell lines: Ba/F3-tel/trkA, Ba/F3-tel/trkA-10nMA (G595R), KM12-DMSO, KM12-30nM101-B (G667C), KM12-100nM101-B (G667C), KM12-300nM101-B (G595R) was screened against a number of chemical compounds.
# [2] = test system: KM12-TPM3/trkA_G595R cells; assay: growth inhibition screen, KM12 mutant cells with G595R; format: cell-based, human
# Experimental: as §2, §3
# [3] = test system: KM12-TPM3/trkA_G667C cells; assay: growth inhibition screen, KM12 mutant cells with G667C; format: cell-based, human
# Experimental: as §2, §3
# [4] = test system: parental KM12 cells (KM12-DMSO; KM12-TPM3/trkA_WT); assay: growth inhibition (CellTiter-Glo, 3 days), parental KM12 cells cultured in DMSO
# [5] = molecular target: T2, BaF3-tel/trkA-10 nMA(G595R) cells (Homo sapiens, UniProt P04629, G595R, cells depend on it); format: cell-based, murine; settings: BaF3-tel/trkA_G595R
# T2 construct: IC50; other: BaF3-tel/trkA-10 nMA(G595R); fused on or other part: P41212 (Transcription factor ETV6)
# Experimental: as §1, §2, §3
# [6] = test system: mutant cells harboring the TrkA-G595C mutation or the TrkA-G667C mutation; assay: screen for inhibition of proliferation of mutant KM12 and Ba/F3-tel/trkA cells; format: cell-based
# Experimental: as §2, §3
# [7] = molecular target: T3, BaF3-tel/trkB cells (Homo sapiens, UniProt Q16620); assay: growth inhibition, Ba/F3-tel/trkB cells; format: cell-based, murine; settings: read-out: IC50, Table 9
# T3 construct: fused on or other part: P41212 (Transcription factor ETV6)
# [8] = molecular target: T4, BaF3-tel/trkC cells (Homo sapiens, UniProt Q16288); assay: growth inhibition, Ba/F3-tel/trkC cells; format: cell-based, murine
# T4 construct: fused on or other part: P41212 (Transcription factor ETV6)
# [9] = test system: KM12-30 nM A cells; assay: cells; settings: for IC50: Homo sapiens
# Experimental: as §2
# [10] = test system: KM12-30 nM-B cells; assay: cells; settings: Homo sapiens
# Experimental: as §2
# [11] = test system: KM12-10 nM A cells; assay: cells; settings: Homo sapiens
# Experimental: as §2
# [12] = test system: KM12-1 nM A cells; assay: cells; settings: Homo sapiens
# Experimental: as §2
# [13] = test system: KM12-3 nM A cells; assay: cells; settings: Homo sapiens
# Experimental: as §2
# [14] = test system: KM12-100 nM-B cells; assay: cells; settings: Homo sapiens
# Experimental: as §2
# [15] = test system: KM12-100 nM A cells; assay: cells; settings: Homo sapiens
# Experimental: as §2
# [16] = test system: KM12-300 nM-B cells; assay: cells; settings: Homo sapiens
# Experimental: as §2
# [17] = test system: KM12-100 nM-B (no drug) cells; assay: cells; settings: Homo sapiens
# Experimental: as §2
# [18] = test system: BaF3-tel/trkA-10 nMA(G595R) cells; format: cell-based, murine
# Experimental: as §1, §2, §3
# [19] = Table 8, in μM, read-out: IC50 (the source's name)
# [20] = Homo sapiens, KM12-TPM3/trkA_G595R, Table 8, in μM, read-out: IC50
# [21] = Homo sapiens, KM12-TPM3/trkA_G667C, Table 8, in μM, read-out: IC50
# [22] = Table 9, read-out: IC50 (the source's name)
# [23] = Table 8, cells without unit, read-out: IC50 (the source's name)
# T4 sequence (Q16288 whole entry, change not shown, the tested form may be a part): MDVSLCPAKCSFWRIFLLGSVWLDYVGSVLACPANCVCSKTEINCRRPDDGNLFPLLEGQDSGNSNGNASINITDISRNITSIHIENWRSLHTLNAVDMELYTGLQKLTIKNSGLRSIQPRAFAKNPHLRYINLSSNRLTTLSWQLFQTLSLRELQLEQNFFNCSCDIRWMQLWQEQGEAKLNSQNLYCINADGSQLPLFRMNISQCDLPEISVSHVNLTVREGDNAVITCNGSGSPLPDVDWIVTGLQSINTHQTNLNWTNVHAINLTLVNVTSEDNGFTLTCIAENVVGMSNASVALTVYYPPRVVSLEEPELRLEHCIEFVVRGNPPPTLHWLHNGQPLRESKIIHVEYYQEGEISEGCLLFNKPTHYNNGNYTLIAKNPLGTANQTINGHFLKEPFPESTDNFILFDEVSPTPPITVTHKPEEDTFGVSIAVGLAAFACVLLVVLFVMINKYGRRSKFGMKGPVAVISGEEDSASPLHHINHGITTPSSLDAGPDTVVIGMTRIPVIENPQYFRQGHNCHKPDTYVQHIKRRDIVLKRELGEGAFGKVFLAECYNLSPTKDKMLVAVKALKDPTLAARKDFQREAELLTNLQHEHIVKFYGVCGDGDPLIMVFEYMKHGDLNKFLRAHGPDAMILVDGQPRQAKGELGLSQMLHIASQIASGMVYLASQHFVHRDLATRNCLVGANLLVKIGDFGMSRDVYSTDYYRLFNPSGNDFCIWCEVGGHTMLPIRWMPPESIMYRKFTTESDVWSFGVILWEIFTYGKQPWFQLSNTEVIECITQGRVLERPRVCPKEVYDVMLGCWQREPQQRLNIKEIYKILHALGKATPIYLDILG
# T2 sequence (P04629 whole entry G595R, the tested form may be a part): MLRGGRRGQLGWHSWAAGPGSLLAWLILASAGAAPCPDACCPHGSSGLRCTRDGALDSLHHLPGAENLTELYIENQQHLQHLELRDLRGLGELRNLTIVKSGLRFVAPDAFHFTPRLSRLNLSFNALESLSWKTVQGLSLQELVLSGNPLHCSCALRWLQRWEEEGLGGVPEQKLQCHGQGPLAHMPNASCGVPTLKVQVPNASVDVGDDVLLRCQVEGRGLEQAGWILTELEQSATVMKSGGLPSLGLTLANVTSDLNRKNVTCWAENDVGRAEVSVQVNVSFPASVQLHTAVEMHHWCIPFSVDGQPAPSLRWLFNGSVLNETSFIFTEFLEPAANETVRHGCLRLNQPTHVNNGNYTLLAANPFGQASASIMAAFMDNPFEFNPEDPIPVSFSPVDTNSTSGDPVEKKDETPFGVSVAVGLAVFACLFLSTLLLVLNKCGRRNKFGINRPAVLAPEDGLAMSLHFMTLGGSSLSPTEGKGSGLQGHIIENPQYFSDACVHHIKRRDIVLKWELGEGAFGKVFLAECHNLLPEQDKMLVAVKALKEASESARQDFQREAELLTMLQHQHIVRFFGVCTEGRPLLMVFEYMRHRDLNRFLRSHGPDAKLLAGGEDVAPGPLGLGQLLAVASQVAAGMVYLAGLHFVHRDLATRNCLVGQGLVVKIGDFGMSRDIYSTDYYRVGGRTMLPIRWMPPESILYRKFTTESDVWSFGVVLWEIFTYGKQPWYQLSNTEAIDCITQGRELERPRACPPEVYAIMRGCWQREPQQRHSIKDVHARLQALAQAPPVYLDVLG
# T1 sequence (P04629 whole entry, change not shown, the tested form may be a part): as the sequence (P04629 whole entry G595R, the tested form may be a part) above, with R595G counted along it
# T3 sequence (Q16620 whole entry, change not shown, the tested form may be a part): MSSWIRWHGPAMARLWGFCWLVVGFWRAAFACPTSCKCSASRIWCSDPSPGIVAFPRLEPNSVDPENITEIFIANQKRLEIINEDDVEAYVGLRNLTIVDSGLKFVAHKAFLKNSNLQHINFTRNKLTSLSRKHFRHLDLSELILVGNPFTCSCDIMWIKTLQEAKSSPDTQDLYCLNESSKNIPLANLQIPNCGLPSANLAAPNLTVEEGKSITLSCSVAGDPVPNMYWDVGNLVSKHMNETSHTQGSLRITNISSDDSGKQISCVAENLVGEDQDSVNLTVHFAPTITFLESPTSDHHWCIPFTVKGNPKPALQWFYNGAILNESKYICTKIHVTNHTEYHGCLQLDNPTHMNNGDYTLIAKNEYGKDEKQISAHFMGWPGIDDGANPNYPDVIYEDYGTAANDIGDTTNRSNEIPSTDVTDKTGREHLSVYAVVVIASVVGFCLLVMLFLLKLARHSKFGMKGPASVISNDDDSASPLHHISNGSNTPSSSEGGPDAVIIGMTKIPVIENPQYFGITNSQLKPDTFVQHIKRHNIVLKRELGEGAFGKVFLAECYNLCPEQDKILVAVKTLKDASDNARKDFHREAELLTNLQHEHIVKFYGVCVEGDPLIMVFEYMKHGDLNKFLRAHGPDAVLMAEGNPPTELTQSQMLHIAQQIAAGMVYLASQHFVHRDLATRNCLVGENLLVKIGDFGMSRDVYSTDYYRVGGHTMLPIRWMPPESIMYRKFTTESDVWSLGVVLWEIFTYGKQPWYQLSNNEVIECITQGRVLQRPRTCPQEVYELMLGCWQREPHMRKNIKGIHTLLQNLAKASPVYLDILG
smiles,measurement,setting,value
"Cc1cc(Nc2ncc(Cl)c(Nc3ccccc3S(=O)(=O)C(C)C)n2)c(OC(C)C)cc1C1CCNCC1 [ceritinib, 5-chloro-2-N-(5-methyl-4-piperidin-4-yl-2-propan-2-yloxyphenyl)-4-N-(2-propan-2-ylsulfonylphenyl)pyrimidine-2,4-diamine]",GI50,[1]; [19],> 1 µM
same,IC50,[2]; [20],> 1 µM
same,IC50,[3]; [21],> 1 µM
same,IC50,"[4]; Homo sapiens, KM12",269 nM
same,GI50,[5]; [19],> 1 µM
"CNC(=O)c1cc(Oc2ccc(NC(=O)Nc3cc(C(C)(C)C)nn3-c3ccc4ncccc4c3)c(F)c2)ccn1 [rebastinib, 4-[4-[(5-tert-butyl-2-quinolin-6-ylpyrazol-3-yl)carbamoylamino]-3-fluorophenoxy]-N-methylpyridine-2-carboxamide]",inhibitory activity against mutant cells,[6],significant inhibitory activity
"COC(=O)[C@@]1(O)C[C@H]2O[C@]1(C)n1c3ccccc3c3c4c(c5c6ccccc6n2c5c31)C(=O)NC4 [Compound K252a, 9,12-Epoxy-1H-diindolo[1,2,3-fg:3′,2′,1′-kl]pyrrolo[3,4-i][1,6]benzodiazocine-10-carboxylic acid, 2,3,9,10,11,12-hexahydro-10-hydroxy-9-methyl-1-oxo-, methyl ester, (9S,10R,12R)-]",GI50,[7],45.3 nM
same,GI50,[8]; [22],14.3 nM
"O=C(Nc1cnn2ccc(N3CCC[C@@H]3c3cc(F)ccc3F)nc12)N1CC[C@H](O)C1 [LOXO-101, (3S)-N-[5-[(2R)-2-(2,5-difluorophenyl)-1-pyrrolidinyl]pyrazolo[1,5-a]pyrimidin-3-yl]-3-hydroxy-1-pyrrolidinecarboxamide]",IC50,[2]; [20],> 1 µM
same,IC50,[3]; [21],> 1 µM
same,IC50,"[4]; Homo sapiens, KM12",27 nM
"CN1CCN(c2ccc(C(=O)Nc3n[nH]c4ccc(Cc5cc(F)cc(F)c5)cc34)c(NC3CCOCC3)c2)CC1 [entrectinib, N-[5-(3,5-difluorobenzyl)-1H-indazol-3-yl]-4-(4-methyl-piperazin-1-yl)-2-(tetrahydro-pyran-4-ylamino)-benzamide]",GI50,[7],8.7 nM
same,IC50,[9]; KM12,6.47 nM
same,IC50,"[9]; KM12, 72 h",3.41 nM
same,increase of IC50 value,[9]; KM12-30 nM-A treated cells versus cells cultured in DMSO and 1-10 nM entrectinib,~2 fold
same,IC50,[10],93.8 nM
same,IC50,[11]; KM12,4.65 nM
same,IC50,"[11]; KM12, 72 h",1.71 nM
same,IC50,[12]; KM12,4.19 nM
same,IC50,"[12]; KM12, 72 h",1.57 nM
same,IC50,[13]; KM12,4.36 nM
same,IC50,"[13]; KM12, 72 h",1.64 nM
same,IC50,[14],70.4 nM
same,IC50,[15],6.62 nM
same,IC50,[16],209 nM
same,IC50,[17],85.4 nM
same,GI50,[8]; [22],5.5 nM
same,inhibitory activity against mutant cells,[6],significant inhibitory activity
same,IC50,"[3]; Homo sapiens, KM12",0.367 µM
same,IC50,"[4]; Homo sapiens, KM12, 72 h, KM12-DMSO-A, 3-day growth inhibition, Table 3",1.26 nM
same,IC50,"[4]; Homo sapiens, KM12, 672 h, KM12-DMSO, Table 4, after about 4 weeks of increased entrectinib in Set A",3.95 nM
same,IC50,"[4]; Homo sapiens, KM12, KM12-DMSO-B, Table 5",1.14 nM
same,IC50,"[4]; Homo sapiens, KM12, KM12-TPM3/trkA_WT, Table 8, cells without unit",3.4 nM
same,IC50 higher than that of the control parental line,[18],> 100 fold
"C[C@@H](Oc1cc(-c2cnn(C3CCNCC3)c2)cnc1N)c1c(Cl)ccc(F)c1Cl [crizotinib, (R)-3-[1-(2,6-Dichloro-3-fluorophenyl)ethoxy]-5-[1-(piperidin-4-yl)-1H-pyrazol-4-yl]pyridin-2-amine]",GI50,[1]; [23],0.179 µM
same,IC50,[2]; [20],> 1 µM
same,IC50,[3]; [21],> 1 µM
same,IC50,"[4]; Homo sapiens, KM12",76.6 nM
same,GI50,[5]; [23],0.433 µM
"COc1cc(N2CCC(N3CCN(C)CC3)CC2)ccc1Nc1ncc(Cl)c(Nc2ccccc2S(=O)(=O)C(C)C)n1 [NVP-TAE684, 5-chloro-N2-[2-methoxy-4-[4-(4-methyl-1-piperazinyl)-1-piperidinyl]phenyl]-N4-[2-[(1-methylethyl)sulfonyl]phenyl]-2,4-Pyrimidinediamine]",inhibitory activity against mutant cells,[6],significant inhibitory activity
"CN[C@@H]1C[C@H]2O[C@@](C)([C@@H]1OC)n1c3ccccc3c3c4c(c5c6ccccc6n2c5c31)C(=O)NC4 [Staurosporine, 9,13-Epoxy-1H,9H-diindolo[1,2,3-gh:3′,2′,1′-lm]pyrrolo[3,4-j][1,7]benzodiazonin-1-one, 2,3,10,11,12,13-hexahydro-10-methoxy-9-methyl-11-(methylamino)-, (9S,10R,11R,13R)-]",GI50,[7],4.2 nM
"COC[C@@H](C)Nc1cc(N2CCN(C)CC2)ccc1C(=O)Nc1n[nH]c2ccc(S(=O)(=O)c3cc(F)cc(F)c3)cc12 [Compound 2, N-[5-(3,5-difluoro-benzenesulfonyl)-1H-indazol-3-yl]-2-((R)-2-methoxy-1-methyl-ethylamino)-4-(4-methyl-piperazin-1-yl) benzamide]",GI50,[1]; [23],0.0023 µM
same,IC50,"[2]; KM12-TPM3/trkA_G595R, Table 8, cells without unit, read-out: IC50",0.424 µM
same,inhibitory activity against mutant cells,[6],significant inhibitory activity
same,IC50,"[3]; KM12-TPM3/trkA_G667C, Table 8, cells without unit, read-out: IC50",0.466 µM
same,IC50,"[4]; KM12-TPM3/trkA_WT, Table 8, cells without unit",6.1 nM
same,GI50,[5]; [23],0.846 µM
"CC(C)Oc1cc(Nc2nc(N[C@@H](C)c3ccc(F)cn3)ncc2Cl)n[nH]1 [AZ-23, 5-chloro-2-N-[(1S)-1-(5-fluoropyridin-2-yl)ethyl]-4-N-(3-propan-2-yloxy-1H-pyrazol-5-yl)pyrimidine-2,4-diamine]",GI50,[7],3.3 nM
same,GI50,"[8]; read-out: IC50, Table 9",2.2 nM
"C[C@H]1Oc2cc(cnc2N)-c2c(nn(C)c2C#N)CN(C)C(=O)c2ccc(F)cc21 [PF06463922, (10R)-7-amino-12-fluoro-10,15,16,17-tetrahydro-2,10,16-trimethyl-15-oxo-2H-4,8-Methenopyrazolo[4,3-h][2,5,11]benzoxadiazacyclotetradecine-3-carbonitrile]",GI50,"[1]; read-out: IC50, Table 8, cells without unit",0.386 µM
same,IC50,"[2]; Homo sapiens, KM12",> 1 µM
same,IC50,"[3]; Homo sapiens, KM12",> 1 µM
same,IC50,"[4]; Homo sapiens, KM12",206 nM
same,GI50,"[5]; read-out: IC50, Table 8, in μM",> 1 µM
